Entries after “also recorded” stand apart in the source; their conditions may differ.
Legend:
lung eosinophils = test: Eosinophil infiltration into the lungs (anti-MBP immunohistochemistry); type: in vivo, HLA-A*0201 transgenic C57BL/6 mice; settings: day 4 post RSV challenge; anti-MBP staining, 20 fields at 200×; six mice per group
From the text: Whole lungs were excised from the mice, fixed in 10% formalin (Sigma-Aldrich) solution overnight and embedded in paraffin (Thermo Fisher Scientific) for sectioning. The sections were stained with rat monoclonal anti-major basic protein (MBP) antibody (1∶500 dilution, gifted from Dr. James J. Lee, Mayo Clinic, AZ, USA) followed by the appropriate secondary antibodies. Twenty-bright field microscopy pictures (Nikon DXM1200 CCD digital camera attached with ACT-1 imaging capture software) from each stained section were taken at 200× magnifications and the number of eosinophils was counted. The mean of eosinophil count from each section was calculated.
Figure 6 Eosinophil infiltration into the lungs of peptide-immunized transgenic mice upon RSV challenge. Immunohistochemical analysis of lung sections with anti-major basic protein antibody specific for eosinophils followed by the HRP-conjugated anti-rat antibody was performed. (A) Pictures from the section of normal mouse lung (a), or vehicle- (b), peptide 3- (c), 13- (d), 14- (e) and 23- (f) immunized mouse lung section. (B) Quantitative representation of eosinophil count per section of peptide- or vehicle-immunized HLA-transgenic mice at day 4 post RSV challenge. Twenty bright field pictures from each lung mesenchymal region were examined and the number of eosinophils was counted under 200× magnification. […]

RSV-B1 = test: Lung viral load after live RSV challenge (real-time RT-PCR of RSV N gene); type: in vivo, HLA-A*0201 transgenic C57BL/6 mice; settings: two s.c. doses of 50 µg peptide in IFA, challenge i.n. 1×10^7 pfu live RSV-B1, day 4 post-infection; 10 mice per group; vehicle mean = 0.95
Protocol: To screen the immunodominance of epitopic peptide in the induction of RSV-F specific Th1/Th2 expression, HLA-A*0201 transgenic C57BL/6 mice were anesthetized with isoflurane and immunized with 1×10^7 pfu/50 µL of rAd-F0 or rAd-LacZ or 1×10^4 live RSV B1 via the intranasal (i.n.) route. Twenty days later, the mice were given booster immunization i.n. with the same dose. After 10 days of boost, mice were sacrificed and splenocytes were isolated for the cytokine ELISPOT assay. […] Mice body weight was monitored daily.
Lung RNA (5 µg) was mixed with 10 nmole random primers and 2 units of […] reverse transcriptase (Invitrogen) and incubated at 94°C for 10 minutes, 37°C for 30 minutes, and then at 4°C. The resulting cDNA was subjected to quantitative PCR analysis (The LightCycler® 480 Real-Time PCR system) with RSV N specific primer pairs, forward: 5′-[…]-3′ and reverse: 5′-[…]-3′. Expression of mouse GAPDH gene in the tested samples was detected as internal control by using specific primer pairs, forward: 5′-[…]-3′ and reverse: 5′-[…]-3′. The number of cycles (Ct) required for the amplification of the N gene and GAPDH was calculated. The relative expression of the N gene was calculated as followed: the individual Ct (RSV N) obtained from peptide- or vehicle-immunized lung was normalized by the respective Ct (GAPDH), and then [drawing 3] was divided by the mean of [drawing 4] . […]

Sequence: YMLTNSELL [peptide 14, HLA-A*0201-restricted 9-mer synthetic peptide from F protein of RSV-B1 strain]
- eosinophil numbers in the lungs vs vehicle-immunized mice (lung eosinophils): comparable eosinophil numbers
- expression of RSV N gene in the lungs (relative, normalized to GAPDH), mean (RSV-B1): no significant reduction; also recorded: reduced lung viral load only marginally

Reference: paper PMC3183052, “Immunoprotectivity of HLA-A2 CTL Peptides Derived from Respiratory Syncytial Virus Fusion Protein in HLA-A2 Transgenic Mouse” (PLoS ONE, 2011)
